Data as given in patent US6872805B2 (Bristol-Myers Squibb Company, priority 2000, dated 2005).

Molecular target: HCV NS3/4A protease complex (Hepatitis C virus genotype 1a, UniProt P27958, C1454S/C1711G)
Test: Recombinant HCV NS3/4A protease complex FRET peptide assay (strain not stated)
Format: biochemical
Conditions: IC50, NS3/4A protease enzyme assay, strain not stated; activity ranges
Source text: The purpose of this in vitro assay was to measure the inhibition of HCV NS3 protease complexes, derived from the BMS, H77C or J416S strains, as described below, by compounds of the present invention.
Serum from an HCV-infected patient was obtained from Dr. T. Wright, San Francisco Hospital. An engineered full-length cDNA template of the HCV genome (BMS strain) was constructed from DNA fragments obtained by reverse transcription-PCR (RT-PCR) of serum RNA and using primers selected on the basis of homology between other genotype 1a strains. […] The infectious clones, H77C (1a genotype) and J4L6S (1b genotype) were obtained from R. Purcell (NIH) and the sequences are published in genebank (AAB67036, see Yanagi, M., Purcell, R. H., Emerson, S. U. and Bukh, J. Proc. Natl. Acad. Sci. U.S.A. 94(16),8738-8743 (1997); AF054247, see Yanagi, M., St Claire, M., Shapiro, M., Emerson, S. U., Purcell, R. H. and Bukh, J, Virology 244 (1), 161-172. (1998)).
The BMS, H77C and J4L6S strains were used for production of recombinant NS3/4A protease complexes. DNA encoding the recombinant HCV NS3/4A protease complex (amino acid 1027 to 1711) for these strains were manipulated as described by P. Gallinari et al. (see Gallinari P, Paolini C, Brennan D, Nardi C, Steinkuhler C, De Francesco R. Biochemistry. 38(17):5620-32, (1999)). Briefly, a three-lysine solubilizing tail was added at the 3′-end of the NS4A coding region. The cysteine in the P1 position of the NS4A-NS4B cleavage site (amino acid 1711) was changed to a glycine to avoid the proteolytic cleavage of the lysine tag. Furthermore, a cysteine to serine mutation was introduced by PCR at amino acid position 1454 to prevent the autolytic cleavage in the NS3 helicase domain. The variant DNA fragment was cloned in the pET21b bacterial expression vector and the NS3/4A complex was expressed in E. coli BL21 (DE3) following the protocol described by P. Gallinari et al. (see Gallinari P, Brennan D, Nardi C, Brunetti M, Tomei L, Steinkuhler C, De Francesco R., J Virol. 72(8):6758-69 (1998)) with modifications. Briefly, NS3/4A expression was induced with 0.5 mM IPTG for 22 hr at 20° C. […] The cells were resuspended in lysis buffer (10 mL/g) consisting of 25 mM HEPES, pH 7.5, 20% glycerol, 500 mM NaCl, 0.5% Triton-X100, 1 ug/ml lysozyme, 5 mM MgCl2, 1 ug/ml DNaseI 5 mM β-Mercaptoethanol (βME), Protease inhibitor—EDTA free, homogenized and incubated for 20 mins at 4° C. The homogenate was sonicated and clarified by ultra-centrifugation at 235000 g for 1 hr at 4° C. Imidazole was added to the supernatant to a final concentration of 15 mM and the pH adjusted to 8.0. The crude protein extract was loaded on a Ni-NTA column pre-equilibrated with buffer B (25 mM HEPES, pH 8.0, 20% glycerol, 500 mM NaCl, 0.5% Triton-X100, 15 mM imidazole, 5 mM βME). The sample was loaded at a flow rate of 1 mL/min. The column was washed with 15 column volumes of buffer C (same as buffer B except with 0.2% Triton-X100). The protein was eluted with 5 column volumes of 200 mM Imidazole in buffer.
NS3/4A protease complex-containing fractions were pooled and loaded on a desalting column Superdex-S200 pre-equilibrated with buffer D (25 mM HEPES, pH 7.5, 20% glycerol, 300 mM NaCl, 0.2% Triton-X100, 10 mM βME). Sample was loaded at a flow rate of 1 mL/min. NS3/4A protease complex-containing fractions were pooled and concentrated to approximately 0.5 mg/ml.

HCV NS3/4A protease complex, sequence (P27958 1027-1711, stated change not applied): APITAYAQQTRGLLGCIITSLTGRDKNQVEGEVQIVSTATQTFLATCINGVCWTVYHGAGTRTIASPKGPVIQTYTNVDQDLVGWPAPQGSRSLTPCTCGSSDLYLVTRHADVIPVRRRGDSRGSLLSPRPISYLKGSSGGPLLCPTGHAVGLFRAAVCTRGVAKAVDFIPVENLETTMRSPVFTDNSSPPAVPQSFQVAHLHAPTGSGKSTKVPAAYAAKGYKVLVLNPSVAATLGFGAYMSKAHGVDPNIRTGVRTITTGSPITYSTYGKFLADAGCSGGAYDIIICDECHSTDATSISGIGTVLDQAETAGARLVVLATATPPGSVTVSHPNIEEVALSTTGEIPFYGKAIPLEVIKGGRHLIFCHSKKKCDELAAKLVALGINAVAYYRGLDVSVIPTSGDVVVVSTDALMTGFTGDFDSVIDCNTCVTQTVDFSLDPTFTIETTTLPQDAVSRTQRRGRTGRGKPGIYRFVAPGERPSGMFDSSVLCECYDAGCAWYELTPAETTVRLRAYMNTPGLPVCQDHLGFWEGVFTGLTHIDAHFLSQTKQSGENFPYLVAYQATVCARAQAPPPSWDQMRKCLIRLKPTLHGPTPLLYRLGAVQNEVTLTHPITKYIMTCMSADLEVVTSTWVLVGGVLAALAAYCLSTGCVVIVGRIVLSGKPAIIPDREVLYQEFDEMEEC
HCV NS3/4A protease complex, sequence (P27958 1027-1711, stated change not applied): as above

Row | SMILES | IC50
1 | C=CC1CC1(NC(=O)OC(C)(C)C)C(=O)N1C[C@H](Oc2cc(-c3ccccc3)nc3cc(OC)ccc23)CC1C(=O)N[C@]1(C(=O)NS(=O)(=O)C2CC2)C[C@H]1C=C (stereo partly drawn) [Compound 97, {1S-[2S-(1R-cyclopropanesulfonylamino-carbonyl-2S-vinylcyclopropylcarbamoyl)-4R-(7-methoxy-2-phenyl-quinolin-4-yloxy)-pyrrolidine-1-carbonyl]-2-vinyl-cyclopropyl}-carbamic acid tert-butyl ester] | < 500 nM
2 | C=CC1CC1(NC(=O)[C@@H]1C[C@@H](Oc2cc(-c3ccccc3)nc3cc(OC)ccc23)CN1C(=O)[C@@H](NC(=O)OC(C)(C)C)C(C)C)C(=O)NS(=O)(=O)C(F)(F)F (stereo partly shown) [Compound 85] | < 500 nM
3 | C=CC1C[C@]1(NC(=O)[C@@H]1C[C@@H](Oc2cc(-c3ccccc3)nc3cc(OC)ccc23)CN1C(=O)[C@@H](NC(=O)OC(C)(C)C)C(C)(C)C)C(=O)NS(=O)(=O)c1ccc(-c2ccccc2)cc1 (stereo partly shown) [Compound 65] | < 500 nM
4 | CCC1CC1(NC(=O)[C@@H]1C[C@@H](Oc2cc(-c3ccccc3)nc3cc(OC)ccc23)CN1C(=O)[C@H](CC1CCCCC1)NC(=O)OC(C)(C)C)C(=O)NS(C)(=O)=O (stereo partly shown) [Compound 74] | < 5000 nM
5 | CCC1CC1(NC(=O)[C@@H]1C[C@@H](Oc2cc(-c3ccccc3)nc3cc(OC)ccc23)CN1C(=O)[C@H](CC1CCCCC1)NC(=O)OC(C)(C)C)C(=O)NS(=O)(=O)C(F)(F)F (stereo partly shown) [Compound 80] | < 5000 nM
6 | C=CC1CC1(NC(=O)[C@@H]1C[C@@H](Oc2cc(-c3ccccc3)nc3cc(OC)ccc23)CN1C(=O)[C@H](CC1CCCCC1)NC(=O)OC(C)(C)C)C(=O)NS(=O)(=O)C(F)(F)F (stereo partly shown) [Compound 82] | < 50000 nM
7 | C=CC1CC1(NC(=O)[C@@H]1C[C@@H](Oc2cc(-c3ccccc3)nc3cc(OC)ccc23)CN1C(=O)[C@H](CC(C)C)NC(=O)OC(C)(C)C)C(=O)NS(C)(=O)=O (stereo partly shown) [Compound 90] | < 500 nM
8 | C=CC1CC1(NC(=O)[C@@H]1C[C@@H](Oc2cc(-c3ccccc3)nc3cc(OC)ccc23)CN1C(=O)[C@H](CC1CCCCC1)NC(=O)OC(C)(C)C)C(=O)NS(=O)(=O)C(F)(F)F (stereo partly shown) [Compound 81] | < 5000 nM
9 | CCC1CC1(NC(=O)[C@@H]1C[C@@H](Oc2cc(-c3ccccc3)nc3cc(OC)ccc23)CN1C(=O)[C@H](CC1CCCCC1)NC(=O)OC(C)(C)C)C(=O)NS(=O)(=O)C1CC1 (stereo partly shown) [Compound 78] | < 50 nM
10 | C=CC1CC1(NC(=O)[C@@H]1C[C@@H](Oc2cc(-c3ccccc3)nc3cc(OC)ccc23)CN1C(=O)[C@@H](NC(=O)OC(C)(C)C)C(C)C)C(=O)NS(=O)(=O)C1CC1 (stereo partly shown) [Compound 92] | < 50 nM
11 | COc1ccc2c(OC3C[C@@H](C(=O)NC4(C(=O)NS(=O)(=O)C5CC5)CC45CCCC5)N(C(=O)[C@@H](NC(=O)OC(C)(C)C)C(C)(C)C)C3)cc(-c3ccccc3)nc2c1 (stereo partly shown) [Compound 139, {1-[2-(1-Cyclopropanesulfonylaminocarbonyl-spiro[2.4]hept-1-ylcarbamoyl)-4-(7-methoxy-2-phenyl-quinolin-4-yloxy)-pyrrolidine-1-carbonyl]-2,2-dimethyl-propyl}carbamic acid tert-butyl ester] | < 5000 nM
12 | C=CC1CC1(NC(=O)[C@@H]1C[C@@H](Oc2cc(-c3ccccc3)nc3cc(OC)ccc23)CN1C(=O)[C@H](CC(C)C)NC(=O)OC(C)(C)C)C(=O)NS(=O)(=O)C1CC1 (stereo partly shown) [Compound 93] | < 50 nM
13 | CCC1C[C@]1(NC(=O)[C@@H]1C[C@@H](Oc2cc(-c3ccccc3)nc3cc(OC)ccc23)CN1C(=O)[C@@H](NC(=O)OC(C)(C)C)C(C)C)C(=O)NS(C)(=O)=O (stereo partly shown) [Compound 1] | < 500 nM
14 | C=CC1C[C@]1(NC(=O)[C@@H]1C[C@@H](Oc2cc(-c3ccccc3)nc3cc(OC)ccc23)CN1C(=O)[C@@H](NC(=O)OC(C)(C)C)C(C)(C)C)C(=O)NS(=O)(=O)c1ccc(OC(F)(F)F)cc1 (stereo partly shown) [Compound 66] | < 500 nM
15 | C=CC1CC1(NC(=O)[C@@H]1C[C@@H](Oc2cc(-c3ccccc3)nc3cc(OC)ccc23)CN1C(=O)[C@@H](NC(=O)OC(C)(C)C)C(C)(C)C)C(=O)NS(C)(=O)=O (stereo partly shown) [Compound 88] | < 500 nM
16 | COc1ccc2c(O[C@@H]3C[C@@H](C(=O)NC4(C(=O)NS(=O)(=O)C5CC5)CC45CCC5)N(C(=O)[C@@H](NC(=O)OC(C)(C)C)C(C)C)C3)cc(-c3ccccc3)nc2c1 (stereo partly shown) [Compound 138] | < 5000 nM
17 | CCC1CC1(NC(=O)[C@@H]1C[C@@H](Oc2cc(-c3ccccc3)nc3cc(OC)ccc23)CN1C(=O)[C@H](CC1CCCCC1)NC(=O)OC(C)(C)C)C(=O)NS(C)(=O)=O (stereo partly shown) [Compound 75] | < 500 nM
18 | C=CC1C[C@]1(NC(=O)[C@@H]1C[C@@H](Oc2cc(-c3ccccc3)nc3cc(OC)ccc23)CN1C(=O)C(NC(=O)OC(C)(C)C)C(C)(C)C)C(=O)NS(=O)(=O)c1c(C(C)C)cc(C(C)C)cc1C(C)C (stereo partly shown) [Compound 64] | < 5000 nM
19 | C=CC1CC1(NC(=O)[C@@H]1C[C@@H](Oc2cc(-c3ccccc3)nc3cc(OC)ccc23)CN1C(=O)[C@H](CC1CCCCC1)NC(=O)OC(C)(C)C)C(=O)NS(=O)(=O)C1CC1 (stereo partly shown) [Compound 79] | < 500 nM
20 | C=CC1CC1(NC(=O)[C@@H]1C[C@@H](Oc2cc(-c3ccccc3)nc3cc(OC)ccc23)CN1C(=O)[C@H](CC1CCCCC1)NC(=O)OC(C)(C)C)C(=O)NS(C)(=O)=O (stereo partly shown) [Compound 76] | < 500 nM
21 | CCC1CC1(NC(=O)[C@@H]1C[C@@H](Oc2cc(-c3ccccc3)nc3cc(OC)ccc23)CN1C(=O)[C@H](CC1CCCCC1)NC(=O)OC(C)(C)C)C(=O)NS(=O)(=O)C1CC1 (stereo partly shown) [Compound 77] | < 50000 nM
22 | C=CC1CC1(NC(=O)[C@@H]1C[C@@H](Oc2cc(-c3ccccc3)nc3cc(OC)ccc23)CN1C(=O)[C@H](CC(C)C)NC(=O)OC(C)(C)C)C(=O)NS(=O)(=O)C(F)(F)F (stereo partly shown) [Compound 84] | < 5000 nM
23 | C=CC1C[C@]1(NC(=O)[C@@H]1C[C@@H](Oc2cc(-c3ccccc3)nc3cc(OC)ccc23)CN1C(=O)[C@@H](NC(=O)OC(C)(C)C)C(C)(C)C)C(=O)N[S+]([O-])C(C)(C)C (stereo partly shown) [Compound 62] | < 5000 nM

Same assay, conditions: IC50, separated isomers of Compound 97; strain not stated

Row | SMILES | IC50
24 | C=CC1CC1(NC(=O)OC(C)(C)C)C(=O)N1C[C@H](Oc2cc(-c3ccccc3)nc3cc(OC)ccc23)CC1C(=O)N[C@]1(C(=O)NS(=O)(=O)C2CC2)C[C@H]1C=C (stereo partly drawn) [higher RF isomer, {1S-[2S-(1R-cyclopropanesulfonylamino-carbonyl-2S-vinylcyclopropylcarbamoyl)-4R-(7-methoxy-2-phenyl-quinolin-4-yloxy)-pyrrolidine-1-carbonyl]-2-vinyl-cyclopropyl}-carbamic acid tert-butyl ester] | 250 nM
25 | C=CC1CC1(NC(=O)OC(C)(C)C)C(=O)N1C[C@H](Oc2cc(-c3ccccc3)nc3cc(OC)ccc23)CC1C(=O)N[C@]1(C(=O)NS(=O)(=O)C2CC2)C[C@H]1C=C (stereo partly drawn) [lower RF isomer, {1S-[2S-(1R-cyclopropanesulfonylamino-carbonyl-2S-vinylcyclopropylcarbamoyl)-4R-(7-methoxy-2-phenyl-quinolin-4-yloxy)-pyrrolidine-1-carbonyl]-2-vinyl-cyclopropyl}-carbamic acid tert-butyl ester] | 24 nM
